The target of test [1] is CGRP-1 binding sites in rat skeletal muscle membrane. Conditions: rat skeletal muscle membrane preparations, cited from earlier work.
Another test concerns Wistar rats. As to the kind of experiment: Tissue free fatty acid and triglyceride content following infusion in normal-fed rats. Format: in vivo, rat. Here is the method: Surgery. Experiments were performed on male Wistar rats. Animals were randomly assigned to experimental groups as outlined below. Induction and maintenance of surgical anesthesia was by 3-5% halothane and 2L oxygen. An initial blood sample was taken from a tail artery for measurement of baseline levels of blood glucose and lactate, electrolyte, acid base and oxygen status and serum levels of free fatty acids, triglyceride and cholesterol. Immediately following this, the trachea was cannulated and the animal ventilated at 60-70 breaths.min-1 with air supplemented with O2. The respiratory rate and end-tidal pressure (10-15 cmH2O) were adjusted to maintain end-tidal CO2 at 35-40 mmHg. Body temperature was maintained at 37° C. throughout surgery and the experiment by a heating pad. The carotid artery and jugular vein were cannulated with a solid-state blood pressure transducer and a saline filled PE 50 catheter respectively. For the antagonist infusion studies, surgery was similar to above with the alteration being that both the carotid artery and jugular vein were cannulated with saline filled PE 50 catheters. Fluids (saline or hormone dissolved in saline) were delivered to the jugular vein with a Y-connector to join the two lines. The carotid artery line was connected to a blood pressure transducer. Blood samples were taken from this line at time zero (baseline reading), 30 minutes and every 20 minutes until the end of the experiment at 90 minutes.
Infusion. […] Blood glucose measurements were taken from tail capillaries at 5-minute intervals throughout the duration of the experiment. At the end of the infusion a terminal blood sample was taken by cardiac puncture and analysed as per the basal sample and also for various metabolites and hormones. Serum and plasma samples were stored at −80° C. until future analysis. Animals were killed by cervical dislocation and harvested tissues (brain, liver, kidney, soleus muscle, extensor digitorum longus muscle, left ventricle, retroperitoneal and epididymal fat pads) snap frozen in liquid N2 and stored at −80° C. until future analysis. For the antagonist studies, the protocols was the same as above with the following changes: Infusion was a combination of antagonist, CGRP or saline.

The subject of a further test is soleus muscle. As to the kind of experiment: Masoprocol effect on CGRP1-evoked NEFA and triglyceride contents in soleus muscle from high fat-fed rats. Format: cell-based, rat. An excerpt:
Masoprocol, (nordihydroguaiaretic acid), is a lipoxygenase inhibitor, that has been identified as the active component of Creosote bush extracts. Oral administration of this compound lowers serum NEFA and triglyceride concentrations in rats with fructose-induced hypertriglyceridemia (Gowri et al. 2000, Am. J. Physiol. 279: E593-E600), and decrease blood glucose and triglyceride concentrations in a fat-fed/streptozotocin rat model (Reed et al. 1999, Diabetologia 42: 102-106).

Test [2] addresses T1, murine ramp 1/C1ins− receptor (Mus musculus, UniProt Q60755+Q9WTJ5).
T1 construct: expressed in transfected cells; host or cells: L6 myoblasts (ATCC), transient co-transfection of pcDNA3.1 plasmids
T1 sequence (Q60755 42-496 isoform Q60755-2 limits assumed): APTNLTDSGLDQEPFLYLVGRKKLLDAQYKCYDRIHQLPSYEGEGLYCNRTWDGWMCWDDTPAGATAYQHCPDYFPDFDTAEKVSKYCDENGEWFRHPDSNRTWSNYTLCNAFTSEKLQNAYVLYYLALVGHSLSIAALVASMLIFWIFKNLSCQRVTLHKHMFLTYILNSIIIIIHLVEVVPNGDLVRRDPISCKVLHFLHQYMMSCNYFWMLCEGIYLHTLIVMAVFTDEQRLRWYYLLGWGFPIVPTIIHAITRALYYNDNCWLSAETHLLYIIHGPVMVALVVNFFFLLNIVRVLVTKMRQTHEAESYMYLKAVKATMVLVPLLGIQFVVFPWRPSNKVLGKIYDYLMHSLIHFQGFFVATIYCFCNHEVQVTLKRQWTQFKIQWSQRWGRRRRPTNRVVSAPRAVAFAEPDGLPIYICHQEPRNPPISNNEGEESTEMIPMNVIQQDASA
T1 sequence (Q9WTJ5 27-148 partner): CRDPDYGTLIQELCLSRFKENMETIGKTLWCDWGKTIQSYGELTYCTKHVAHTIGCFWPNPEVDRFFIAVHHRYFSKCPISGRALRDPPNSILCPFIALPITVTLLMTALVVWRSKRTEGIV
As to the kind of experiment: Radioligand binding and displacement of [3H]amylin in L6 myoblasts co-transfected with murine ramp 1 and C1ins−. Particulars: 10 nM radioligand, FIG. 8D. (In a radioligand displacement assay an active substance lowers the binding of a labelled ligand.)
Protocol: Transfection of L6 myoblasts and cos-7 cells, and analysis of radioligand binding. L6 myoblasts and cos-7 cells were obtained from ATCC. Both cell lines were cultered in Dulbecco's modified Eagle's medium (DMEM; Gibco/BRL, high glucose) supplemented with 10% fetal calf serum (Gibco/BRL, Gaithersburg, Md.), L-glutamine (2 mM), penicillin (100 U/ml; Sigma), streptomycin (100 mg/ml; Sigma), saline (0.85%), under 5% CO2/95% air at 37° C. The day before transfection, cells were trypsinised and seeded into six-well plates at a density of 2.9×10^5 cells/well in the same medium. For transfection, cells were incubated with a mixture comprising 1 μg each of Qiagen-purified (Qiagen, Valencia, Calif.) plasmids containing C1ins− with either ramp 1 or ramp 3, and Fugene reagent (6 μl; Boehringer Mannheim) in Opti-Mem I medium (Gibco/BRL). The complex was added with serum to cells, which were incubated for a further 48 h.
For binding experiments, radioligand (either alone or together with stated final concentrations of non-radiolabeled ligands) was dissolved in DMEM containing 0.1% BSA (binding buffer) for 1 h before binding experiments were performed. […] Cells were washed twice with this buffer, then incubated with 1 ml of the same plus radioligand for 4 h at room temperature (21° C.).

[3] abbreviates: 1 pM CGRP1, high fat-fed soleus.
Setting [4] is: 100 nM CGRP1, high fat-fed soleus.

Like-named read-outs stand apart in the source and are kept apart here.

The Kd is the constant that tells how readily two partners part at equilibrium.

rat CGRP-1: the dissociation constant Kd in test [1] (read-out: Kd, high affinity binding site) was about 0.037 nM; in test [1] (read-out: Kd, second binding site) it was about 6 nM. The “FFA content, Heart” value in the test on Wistar rats (CGRP 100 pmol/kg/min 1 h, CGRP-(8-37) 10 nmol/kg/min 90 minutes, control 0.8 ± 0.2) was 0.9 ± 0.1 µmol/g. Besides, in the test with Wistar rats (same infusions, control 0.1 ± 0.01), the “FFA content, Liver” value was determined as 0.7 ± 0.1 µmol/g. Besides, the “FFA content, Soleus Muscle” value with Wistar rats (same infusions, control 0.2 ± 0.02) stood at 0.6 ± 0.07 µmol/g. Besides, in the test on Wistar rats (same infusions, control 0.8 ± 0.1), the “FFA content, Kidney” value worked out at 0.9 ± 0.2 µmol/g. Moreover, in the test with Wistar rats (same infusions, control 2.1 ± 0.5), the “FFA content, Epi Adipose” value amounted to 2.7 ± 0.7 µmol/g. Moreover, in the test with Wistar rats (same infusions, control 2.8 ± 0.5), the “triglyceride content, Kidney” value came out at 2.4 ± 0.4 µmol/g. Besides, the “triglyceride content, Heart” value in the test on Wistar rats (same infusions, control 2.9 ± 0.4) came out at 2.6 ± 0.4 µmol/g. In addition, in the test with Wistar rats (same infusions, control 3.7 ± 0.4), the “triglyceride content, Soleus Muscle” value stood at 1.5 ± 0.2 µmol/g. For the same substance, the “triglyceride content, Liver” value in the test on Wistar rats (same infusions, control 4.3 ± 0.3) is 2.2 ± 0.5 µmol/g. For the same substance, in the test with Wistar rats (same infusions, control 5.1 ± 1.2), the “triglyceride content, Epi Adipose” value came to 5.0 ± 0.9 µmol/g. Moreover, the NEFA elevation came out at 482 ± 99 nmol/g in the test on soleus muscle (setting [3]) and 533 ± 114 nmol/g in the test on soleus muscle (setting [4]). The “soleus triglyceride content (decrement)” value in the test with soleus muscle (setting [3]) and in the test on soleus muscle (setting [4]) was 1.2 mmol/g in each case.

For the substance Rat amylin, the “specific binding of [3H]radioligand to L6 myoblasts co-transfected with ramp 1 and C1ins−” value in test [2] is reported as “significant increases in specific binding”.

Values taken from patent US20040038861A1, “Methods and compositions for normalizing lipid levels in mammalian tissues” (priority 2001, published 2004).
